Test results published in PubChem BioAssay AID330 (DTP/NCI, 2004).
Where “and” joins values, the source holds several entries; their conditions need not be identical. Equal values may be shown once. Toxic doses and inconclusive results are not listed.

System: P388 leukemia ip, CD2F1 mice, survival T/C
Assay: NCI In Vivo Anticancer Drug Screen. Data for tumor model P388 Leukemia (intraperitoneal) in CD2F1 (CDF1) mice
Conditions: endpoint: median survival time, higher = longer survival
Outline: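 Mice carrying the transplanted tumor received test compound or vehicle. Survival was recorded in each group, and the value is the treated-group measurement divided by that of the vehicle-treated control group.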

[1] = dose: 50.0 mg/kg/injection, schedule: Q01DX005 (ip), vehicle: saline with Tween-80
[2] = dose: 100.0 mg/kg/injection, schedule: Q01DX005 (ip), vehicle: saline with Tween-80
[3] = dose: 200.0 mg/kg/injection, schedule: Q01DX005 (ip), vehicle: saline with Tween-80
[4] = dose: 50.0 mg/kg/injection, schedule: Q01DX009 (ip), vehicle: Klucel (hydroxypropylcellulose) (HPC)
[5] = dose: 100.0 mg/kg/injection, schedule: Q01DX009 (ip), vehicle: Klucel (hydroxypropylcellulose) (HPC)
[6] = dose: 50.0 mg/kg/injection, schedule: Q01DX009 (ip), vehicle: saline with Tween-80
[7] = dose: 100.0 mg/kg/injection, schedule: Q01DX009 (ip), vehicle: saline with Tween-80
[8] = dose: 100.0 mg/kg/injection, schedule: Q04DX003 (ip), vehicle: Klucel (hydroxypropylcellulose) (HPC)
[9] = dose: 200.0 mg/kg/injection, schedule: Q04DX003 (ip), vehicle: Klucel (hydroxypropylcellulose) (HPC)
[10] = dose: 400.0 mg/kg/injection, schedule: Q04DX003 (ip), vehicle: Klucel (hydroxypropylcellulose) (HPC)
[11] = dose: 100.0 mg/kg/injection, schedule: Q04DX002 (ip), vehicle: saline
[12] = dose: 200.0 mg/kg/injection, schedule: Q04DX002 (ip), vehicle: saline
[13] = dose: 25.0 mg/kg/injection, schedule: Q01DX005 (ip), vehicle: Klucel (hydroxypropylcellulose) (HPC)
[14] = dose: 50.0 mg/kg/injection, schedule: Q01DX005 (ip), vehicle: Klucel (hydroxypropylcellulose) (HPC)
[15] = dose: 100.0 mg/kg/injection, schedule: Q01DX005 (ip), vehicle: Klucel (hydroxypropylcellulose) (HPC)
[16] = dose: 25.0 mg/kg/injection, schedule: Q01DX009 (ip), vehicle: saline with Tween-80
[17] = dose: 60.0 mg/kg/injection, schedule: Q01DX005 (ip), vehicle: saline with Tween-80
[18] = dose: 120.0 mg/kg/injection, schedule: Q01DX005 (ip), vehicle: saline with Tween-80
[19] = dose: 240.0 mg/kg/injection, schedule: Q01DX005 (ip), vehicle: saline with Tween-80

## COc1cccc2cc(-n3nnc4cc([N+](=O)[O-])ccc43)c(=O)oc12
dose: 12.5 mg/kg/injection, schedule: Q01DX005 (ip), vehicle: saline with Tween-80
  T/C: 95 % of control
dose: 25.0 mg/kg/injection, schedule: Q01DX005 (ip), vehicle: saline with Tween-80
  T/C: 93 % of control
[1]
  T/C: 92 % of control and 95 % of control
[2]
  T/C: 97 % of control
[3]
  T/C: 98 % of control

## O=C1CC2(CCCC2)C(=O)N1c1cccc2ccccc12
[4]
  T/C: 94 % of control
[5]
  T/C: 106 % of control
dose: 200.0 mg/kg/injection, schedule: Q01DX009 (ip), vehicle: Klucel (hydroxypropylcellulose) (HPC)
  T/C: 111 % of control

## Cn1c(=O)ccc2ccccc21
dose: 25.0 mg/kg/injection, schedule: Q04DX002 (ip), vehicle: saline with Tween-80
  T/C: 103 % of control
dose: 50.0 mg/kg/injection, schedule: Q04DX002 (ip), vehicle: saline with Tween-80
  T/C: 100 % of control
dose: 50.0 mg/kg/injection, schedule: Q04DX003 (ip), vehicle: saline
  T/C: 108 % of control
dose: 100.0 mg/kg/injection, schedule: Q04DX002 (ip), vehicle: saline with Tween-80
  T/C: 108 % of control
dose: 100.0 mg/kg/injection, schedule: Q04DX003 (ip), vehicle: saline
  T/C: 104 % of control and 113 % of control

## O=C1C=CC(=O)C2C1CC=C1CCCCC12 (centres undefined)
dose: 7.5 mg/kg/injection, schedule: Q01DX009 (ip), vehicle: saline with Tween-80
  T/C: 106 % of control
dose: 15.0 mg/kg/injection, schedule: Q01DX009 (ip), vehicle: saline with Tween-80
  T/C: 109 % of control
dose: 30.0 mg/kg/injection, schedule: Q01DX009 (ip), vehicle: saline with Tween-80
  T/C: 103 % of control

## Nc1cnc2ccccn12
[6]
  T/C: 97 % of control
[7]
  T/C: 102 % of control

## Clc1ccc(CN2Cc3ccc4cccnc4c3OC2c2ccncc2)cc1Cl (centres undefined)
[8]
  T/C: 100 % of control
[9]
  T/C: 96 % of control
[10]
  T/C: 103 % of control

## CSc1nc(N)cc(C(F)(F)F)n1
[1]
  T/C: 88 % of control
[2]
  T/C: 99 % of control
[3]
  T/C: 97 % of control

## O=C(O)CC(OC(=O)CP(=O)(O)O)C(=O)O (centres undefined)
[11]
  T/C: 105 % of control
[12]
  T/C: 93 % of control
dose: 400.0 mg/kg/injection, schedule: Q04DX002 (ip), vehicle: saline
  T/C: 102 % of control

## ClC1=NC(Cl)C(Cl)=N/C1=N\c1ncn[nH]1 (centres undefined)
dose: 4.4 mg/kg/injection, schedule: Q04DX003 (ip), vehicle: saline with Tween-80
  T/C: 100 % of control
dose: 6.6 mg/kg/injection, schedule: Q04DX003 (ip), vehicle: saline with Tween-80
  T/C: 100 % of control
dose: 10.0 mg/kg/injection, schedule: Q04DX003 (ip), vehicle: saline with Tween-80
  T/C: 90 % of control
dose: 15.0 mg/kg/injection, schedule: Q04DX003 (ip), vehicle: saline with Tween-80
  T/C: 104 % of control

## COc1ccc2c3c(c(=O)n(C)c2c1OC)C=CC(C)(C)O3
[13]
  T/C: 94 % of control
[14]
  T/C: 100 % of control
[15]
  T/C: 100 % of control
dose: 200.0 mg/kg/injection, schedule: Q01DX005 (ip), vehicle: Klucel (hydroxypropylcellulose) (HPC)
  T/C: 88 % of control

## C/C(=N\N=c1/cc(Cl)n(C)c(=O)n1C)c1ccc(Cl)cc1
[4]
  T/C: 102 % of control
[5]
  T/C: 99 % of control

## CCCCC/C(C)=C\CBr
[16]
  T/C: 96 % of control
[6]
  T/C: 99 % of control
[7]
  T/C: 89 % of control

## O=C(O)c1ccc2c(c1)C(=O)c1c(O)ccc(O)c1C2=O
[6]
  T/C: 92 % of control
[7]
  T/C: 103 % of control
dose: 200.0 mg/kg/injection, schedule: Q01DX009 (ip), vehicle: saline with Tween-80
  T/C: 103 % of control

## Cc1nn(CCO)c(C)c1N=[N+]([O-])c1c(C)nn(CCO)c1C
dose: 10.0 mg/kg/injection, schedule: Q01DX009 (ip), vehicle: suspension in saline
  T/C: 114 % of control
dose: 20.0 mg/kg/injection, schedule: Q01DX009 (ip), vehicle: suspension in saline
  T/C: 120 % of control
dose: 25.0 mg/kg/injection, schedule: Q04DX003 (ip), vehicle: Klucel (hydroxypropylcellulose) (HPC)
  T/C: 111 % of control and 116 % of control
dose: 30.0 mg/kg/injection, schedule: Q01DX009 (ip), vehicle: suspension in saline
  T/C: 116 % of control
dose: 50.0 mg/kg/injection, schedule: Q04DX003 (ip), vehicle: Klucel (hydroxypropylcellulose) (HPC)
  T/C: 115 % of control and 122 % of control
dose: 60.0 mg/kg/injection, schedule: Q01DX009 (ip), vehicle: suspension in saline
  T/C: 120 % of control
[8]
  T/C: 114 % of control and 96 % of control

## COc1ccc(N(Cc2ccc(C)o2)C(=S)Nc2ccccc2)cc1
[17]
  T/C: 98 % of control
[18]
  T/C: 102 % of control
[19]
  T/C: 105 % of control

## Nc1cc2ccccc2cc1NS(=O)(=O)N1CCCCC1
dose: 50.0 mg/kg/injection, schedule: Q01DX009 (ip), vehicle: acetone
  T/C: 94 % of control
dose: 100.0 mg/kg/injection, schedule: Q01DX009 (ip), vehicle: acetone
  T/C: 101 % of control
dose: 200.0 mg/kg/injection, schedule: Q01DX009 (ip), vehicle: acetone
  T/C: 98 % of control

## NC(CS(=O)(=O)O)C(=O)O (centres undefined)
[11]
  T/C: 105 % of control
[12]
  T/C: 96 % of control

## O=C(O)c1cn2c3c(cc(N4CCN(CCO)CC4)cc3c1=O)SCC2
[17]
  T/C: 104 % of control
[18]
  T/C: 113 % of control
[19]
  T/C: 105 % of control

## CN(C)C(=Nc1ccc(NC(=O)c2ccc(C(=O)Nc3ccc(N=C(Nc4ccccc4)N(C)C)cc3)cc2)cc1)Nc1ccccc1
dose: 6.25 mg/kg/injection, schedule: Q01DX005 (ip), vehicle: Klucel (hydroxypropylcellulose) (HPC)
  T/C: 101 % of control
dose: 12.5 mg/kg/injection, schedule: Q01DX005 (ip), vehicle: Klucel (hydroxypropylcellulose) (HPC)
  T/C: 101 % of control
[13]
  T/C: 100 % of control

## CC(C)C(=O)OCC(C)(C)C(OC(=O)COc1ccc(Cl)cc1Cl)C(C)C (centres undefined)
[1]
  T/C: 101 % of control
[2]
  T/C: 106 % of control
[3]
  T/C: 97 % of control

## CCOC(=O)C(Cc1ccc(N(CCCl)CCCl)cc1)NC(=O)C(Cc1ccccc1)NC=O (centres undefined)
[16]
  T/C: 172 % of control
[6]
  T/C: 86 % of control
dose: 100.0 mg/kg/injection, schedule: Q04DX003 (ip), vehicle: saline with Tween-80
  T/C: 166 % of control
dose: 200.0 mg/kg/injection, schedule: Q04DX003 (ip), vehicle: saline with Tween-80
  T/C: 220 % of control

## CCCCN(CCCC)CCOc1c[nH]c(=O)[nH]c1=O
[14]
  T/C: 103 % of control
[15]
  T/C: 106 % of control

## Fc1ccc(-c2nc3cc(-c4ccccc4)[nH]n3c2N=Nc2ccccc2)cc1
[1]
  T/C: 105 % of control
[2]
  T/C: 103 % of control
[3]
  T/C: 108 % of control

## ClC(Cl)(Cl)C1[O][Sb]([c]2ccccc2)([c]2ccccc2)([c]2ccccc2)[O]1 (centres undefined)
[4]
  T/C: 90 % of control
[5]
  T/C: 101 % of control

## COC(=O)CC1CSCC1=O (centres undefined)
[17]
  T/C: 105 % of control
[18]
  T/C: 100 % of control
[19]
  T/C: 105 % of control

## COC(=O)C(Cc1ccccc1)NC(=O)C(C)NC(=O)c1ccc(OC)cc1 (centres undefined)
dose: 100.0 mg/kg/injection, schedule: Q01DX001 (ip), vehicle: saline with Tween-80
  T/C: 100 % of control
dose: 200.0 mg/kg/injection, schedule: Q01DX001 (ip), vehicle: saline with Tween-80
  T/C: 100 % of control
dose: 400.0 mg/kg/injection, schedule: Q01DX001 (ip), vehicle: saline with Tween-80
  T/C: 93 % of control

## O=C(NNC(O)C(F)(F)F)c1ccccc1 (centres undefined)
[8]
  T/C: 103 % of control
[9]
  T/C: 103 % of control
[10]
  T/C: 110 % of control

## Cc1c(-c2ccccc2)nnn1-c1ccc(F)cc1F
[17]
  T/C: 101 % of control
[18]
  T/C: 99 % of control
[19]
  T/C: 92 % of control

## CCN(CC)Cc1cc(C(=O)CC(c2ccccc2)S(=O)(=O)c2ccc(C)cc2)ccc1O (centres undefined)
dose: 1.56 mg/kg/injection, schedule: Q01DX009 (ip), vehicle: saline
  T/C: 100 % of control
dose: 3.12 mg/kg/injection, schedule: Q01DX009 (ip), vehicle: saline
  T/C: 94 % of control
dose: 6.25 mg/kg/injection, schedule: Q01DX009 (ip), vehicle: saline
  T/C: 97 % of control
dose: 50.0 mg/kg/injection, schedule: Q01DX009 (ip), vehicle: saline
  T/C: 90 % of control
